Results on seven compounds are retold here after ChEMBL document CHEMBL4765294, “Discovery and evaluation of new compounds targeting ribosomal protein S1 in antibiotic-resistant Mycobacterium Tuberculosis” (Eur J Med Chem, 2020).

Activity calls are given as the source filed them. The rule behind the calls is not given here.

The nature of assay [1]: Binding affinity to Mycobacterium tuberculosis RpsA Ala438 deleted mutant C-terminal domain (285 to 476 residues) assessed as dissociation constant by fluorescence quenching titration based analysis.
Assay [2] relates to Mycobacterium tuberculosis. In words: Binding affinity to Mycobacterium tuberculosis RpsA Ala438 deleted mutant C-terminal domain (285 to 476 residues) at 500 uM by STD based analysis.
Assay [3] has as its system Mycobacterium tuberculosis. In words: Binding affinity to Mycobacterium tuberculosis RpsA Ala438 deleted mutant C-terminal domain (285 to 476 residues) assessed as quenching rate constant by fluorescence quenching titration based analysis.

Regarding `CC(Sc1nc(N)cc(N)n1)C(=O)O` (centres undefined), the Kd in assay [1] stood at 1.74 µM.

As to `Cc1ccc(CNC(=O)COc2cc(O)c3c(=O)cc(-c4ccccc4)oc3c2)cc1`, the outcome in assay [2] was Active. Also, the Kd in assay [1] was found to be 1.64 µM. For the same compound, the Kq in assay [3] was 6.64 10^12/M/s.

For the compound `CCOC(=O)CSc1nc2nc[nH]c2c(=O)[nH]1`, in assay [2], the result was Active. Moreover, the Kd in assay [1] came out at 0.31 µM. Moreover, the Kq in assay [3] is 3.4 10^12/M/s.

`O=C(O)CSc1nc2nc[nH]c2c(=O)[nH]1`: the result in assay [2] was Active. In addition, the Kd in assay [1] turned out to be 5.11 µM. Besides, in assay [3], the Kq is 1.91 10^12/M/s.

In the case of `Cc1cccc(CNC(=O)COc2cc(O)c3c(=O)cc(-c4ccccc4)oc3c2)c1`, the outcome in assay [2] was Active. Further, the dissociation constant Kd in assay [1] stood at 6.91 µM. Moreover, the Kq in assay [3] was 2.33 10^12/M/s.

For the compound `Cc1ccc(CNC(=O)CSc2nc3nc[nH]c3c(=O)[nH]2)cc1`, in assay [2], the result was Active. Besides, in assay [1], the Kd was found to be 8.5 µM. The Kq in assay [3] is 3.68 10^12/M/s.

On to `Cc1cccc(CNC(=O)CSc2nc3nc[nH]c3c(=O)[nH]2)c1`, for which, in assay [2], the outcome was Active. Also, in assay [1], the Kd turned out to be 4.67 µM. Besides, the Kq in assay [3] was 2.54 10^12/M/s.
